{"source": "patent US8093210B2", "about": "“Treatment of sepsis with 5-ethyl-1-phenyl-2(1H)-pyridone” (Solanan, Inc., priority 2008, dated 2012)", "key": {"[1]": {"tested_on": "LPS/D-galactosamine-septic shock", "assay": "Lethal LPS/D-galactosamine septic shock in rats (Example 2)", "type": "in vivo, Juvenile Sprague-Dawley rats", "conditions": "monitored for 66 hours", "procedure": "The methodology utilized in Example 1 was used to treat rats. Juvenile Sprague-Dawley rats were induced with LPS/D-galactosamine-septic shock. The animals were monitored for 66 hours after treatment and the resulting data analyzed by the same statistical tests and criteria as in Example 1."}, "[2]": {"assay": "Solubility in water and isotonic saline (Example 9)", "type": "physicochemical", "conditions": "for solubility: thermodynamic from solid, room temperature, colorless, clear solution, read-out: solubility (soluble at)", "procedure": "All solutions were prepared by weighing the chemical, transferring his solid into a polypropylene tube or polystyrene tube and then adding either water or saline to the final desired volume. The compound was dissolved by intermittent mixing with a vortex mixer, gentle heating in a warm water bath (40-45° C.) and sonication (3×15 min.)."}, "LPS-induced septic shock": {"tested_on": "LPS-induced septic shock", "assay": "Lethal shock caused by LPS alone, survival of mice (Example 3)", "type": "in vivo", "conditions": "LPS alone (30 mg/kg), 100 mg/kg i.p., monitored for 4 days", "procedure": "The survival of mice subjected to treatment of the agent and LPS alone pursuant to the methodology of Galanos C, Freudenberg M A, Reutter W. Proc Natl Acad Sci USA. 1979 November; 76 (11)5939-43) was observed. This procedure is believed to evoke a pathophysiological response which is more like that observed during septic shock than that caused by the LPS and galactosamine.\nAll agents were injected simultaneously via the intraperitoneal route and the response compared to a placebo agent (saline).\nThe animals were monitored for 4 days after treatment and the resulting data analyzed by the same Fisher exact test and criteria as before."}, "[3]": {"tested_on": "cecal ligation and puncture (CLP) model of sepsis", "assay": "Serum biomarkers and recoverable serum volume in cecal ligation and puncture (CLP) model of sepsis (Example 4)", "type": "in vivo, Male Swiss-Webster mice", "conditions": "for level of blood urea nitrogen (BUN) / recoverable blood-serum volume (average volume of serum) / serum level of alanine transaminase (ALT) / serum level of creatine kinase / serum level of glucose: 200 mg/kg ip 2 h before CLP, mean ± SEM", "procedure": "Cecal ligation and puncture (CLP) is a more advanced model of septic shock than those involving lipopolysaccharide (LPS). In this model, as described by Wichterman K A, Baue A E, Chaudry I H (J Surg Res. 1980, 29; 189-201), mice are given intraperitoneal (IP) injections of the test compound or saline (control) prior to the beginning of the surgery. The mice are then anesthetized and a laparotomy is performed. The cecum is isolated and separated from the rest of the intestines by tying it at its base with a suturing thread. The cecum is then punctured with a needle. This facilitates influx of the colonic microflora into the abdominal cavity, which results in polymicrobial-induced peritonitis. Unlike the endotoxin model of septic shock, which is initiated by purified bacterial cell wall products, lipopolysaccharide (LPS), that simulates an acute septic shock, the CLP model more closely mimics clinically encountered signs of septic shock seen in humans as it is triggered by living bacteria.\nMale Swiss-Webster mice, seven weeks old, were injected with 5-EPP (200 mg/kg) or saline (control) by intraperitoneal route two hours prior to the beginning of the surgery. They were anesthetized by a mixture of xylazine and ketamine, and a laparotomy was performed. The cecum was separated from the rest of the intestine, ligated with suture, and then punctured with an 18 gauge needle. Blood was collected by cardiac puncture 3, 6, or 12 hours after CLP and the serum isolated by centrifugation. Analysis of serum transaminases, blood urea nitrogen, creatine kinase, and glucose was carried out by a commercial company (Idexx Laboratories, West Sacramento, Calif.).\nThe results are reported as the mean±standard error of the mean with the number of animals in parentheses for each group. The statistical analysis for differences between saline control and 5-EPP pretreated mice was performed using […] (Prism™ for Windows 4.02, Graphpad Software, Inc., San Diego, Calif.). A value of P<0.05 was considered to be the minimum level of statistical significance. Reference values were determined by analyzing serum from mice injected with saline but not subjected to the CLP procedure."}, "Male Swiss-Webster mice": {"tested_on": "Male Swiss-Webster mice", "assay": "LD50 estimate after a single intraperitoneal dose (Example 8)", "type": "in vivo", "procedure": "(§1) Male Swiss-Webster mice were obtained from standard commercial sources at 7 weeks of age, housed in the laboratory for at least 1 week prior to use and were provided standard mouse chow and water ad libitum. Animals were subjected to a 12 hour/12 hour light-dark cycle.\n(§2) Six groups of mice were injected via the intraperitoneal route with 5-EPP (250-500 mg/kg) dissolved in sterile isotonic saline, immediately replaced in their cages and then observed carefully for the next 6-8 hours. A LD50 value was estimated from the mortality data by a non-linear curve fitting program (Prism™ for Windows 4.02)."}, "[4]": {"assay": "LD50 estimate after a single intraperitoneal dose (Example 8)", "type": "in vivo", "conditions": "male, Swiss-Webster, mouse, in vivo, ip; mice; single intraperitoneal dose; sigmoidal curve fit, R^2=0.949", "procedure": "as §1, §2"}, "[5]": {"tested_on": "LPS/D-galactosamine model of septic shock", "assay": "Lethal LPS/D-galactosamine-induced shock, survival of mice (Example 1)", "type": "in vivo", "conditions": "for mortality: 72 hrs post-treatment", "procedure": "Mice were treated with 5-EPP after inducing shock with lipopolysaccharide (LPS) pursuant to established models for lethal LPS-induced shock. The method described by Galanos C, Freudenberg M A, Reutter W. Proc Natl Acad Sci USA. 1979 November; 76 (11):5939-43 was followed. The survival of the mice after treatment with various doses of the agent in LPS/D-galactosamine model of septic shock was monitored. All agents were injected simultaneously via the intraperitoneal route and the response compared to a placebo agent (saline).\nAll data were analyzed by Fisher's exact test (Prism™ for Window 4.02, Graphpad Software, Inc., San Diego, Calif.). A value of P<0.05 was considered to be statistically significant.\nTable 1 clearly illustrates that 5-ethyl-1-phenyl-2(1H)-pyridone (5-EPP) protected mice from lethal LPS/D-galactosamine-induced shock at 72 hrs post-treatment."}}, "note": "Read-outs that look alike come from different tables or passages of the source.", "data": [{"smiles": "CCc1ccc(=O)n(-c2ccccc2)c1", "note": "[5-EPP, 5-ethyl-1-phenyl-2-(1H)-pyridone]", "values": [{"measurement": "mortality", "setting": "[1]; 75 mg/kg", "value": 14.3, "unit": "% mortality"}, {"measurement": "mortality", "setting": "[1]; 200 mg/kg", "value": 12.5, "unit": "% mortality"}, {"measurement": "Results (solubility)", "setting": "[2]; DI Water, final 5-EPP 20.0 mg/mL", "value": "soluble"}, {"measurement": "Results (solubility)", "setting": "[2]; Isotonic saline, final 5-EPP 20.0 mg/mL", "value": "soluble"}, {"measurement": "Results (solubility)", "setting": "[2]; Isotonic saline, final 5-EPP 20.1 mg/mL", "value": "soluble"}, {"measurement": "solubility", "setting": "[2]; saline or isotonic, saline", "value": 20, "unit": "mg/mL"}, {"measurement": "precipitation of dissolved compound", "setting": "[2]; standing at room temperature overnight or following refrigeration", "value": "no precipitation was observed"}, {"measurement": "solubility", "setting": "[2]; water", "value": 20, "unit": "mg/mL"}, {"measurement": "concentrations that do not completely dissolve", "setting": "[2]; water or saline", "value": "≥ 30000", "unit": "µg/mL"}, {"measurement": "mortality", "setting": "LPS-induced septic shock", "value": 30, "unit": "% mortality"}, {"measurement": "level of blood urea nitrogen (BUN)", "setting": "[3]; 3 Hours Post-CLP", "value": "20.8 ± 0.1 (11) mg/dL"}, {"measurement": "recoverable blood-serum volume (average volume of serum)", "setting": "[3]; 3 Hours Post-CLP", "value": "238.8 ± 20.11 (13) microliter"}, {"measurement": "serum level of alanine transaminase (ALT)", "setting": "[3]; 3 Hours Post-CLP", "value": "159.1 ± 21.2 (11) U/L"}, {"measurement": "serum level of creatine kinase", "setting": "[3]; 3 Hours Post-CLP", "value": "2790.4 ± 370.8 (11) U/L"}, {"measurement": "serum level of glucose", "setting": "[3]; 3 Hours Post-CLP", "value": "303.9 ± 30.8 (11) mg/dL"}, {"measurement": "level of blood urea nitrogen (BUN)", "setting": "[3]; 6 Hours Post-CLP", "value": "19.4 ± 1.0 (12) mg/dL"}, {"measurement": "recoverable blood-serum volume (average volume of serum)", "setting": "[3]; 6 Hours Post-CLP", "value": "219.6 ± 16.70 (12) microliter"}, {"measurement": "serum level of alanine transaminase (ALT)", "setting": "[3]; 6 Hours Post-CLP", "value": "128.9 ± 28.7 (12) U/L"}, {"measurement": "serum level of creatine kinase", "setting": "[3]; 6 Hours Post-CLP", "value": "1950.3 ± 244.1 (12) U/L"}, {"measurement": "serum level of glucose", "setting": "[3]; 6 Hours Post-CLP", "value": "116.7 ± 7.7 (12) mg/dL"}, {"measurement": "level of blood urea nitrogen (BUN)", "setting": "[3]; 12 Hours Post-CLP", "value": "23 ± 2.3 (12) mg/dL"}, {"measurement": "recoverable blood-serum volume (average volume of serum)", "setting": "[3]; 12 Hours Post-CLP", "value": "282.7 ± 27.70 (13) microliter"}, {"measurement": "serum level of alanine transaminase (ALT)", "setting": "[3]; 12 Hours Post-CLP", "value": "148.2 ± 12.5 (12) U/L"}, {"measurement": "serum level of creatine kinase", "setting": "[3]; 12 Hours Post-CLP", "value": "778.5 ± 91.6 (12) U/L"}, {"measurement": "serum level of glucose", "setting": "[3]; 12 Hours Post-CLP", "value": "102.9 ± 5.9 (12) mg/dL"}, {"measurement": "serum to blood ratio versus saline-control CLP mice", "setting": "[3]; 200 mg/kg ip, at any time, data not shown", "value": "no significant difference"}, {"measurement": "time to ataxia, loss of the righting reflex and labored breathing", "setting": "Male Swiss-Webster mice; highest doses (450-500 mg/kg) ip", "value": "≤ 5", "unit": "min"}, {"measurement": "absorption and distribution, suggested by rapid onset of symptoms", "setting": "Male Swiss-Webster mice; intraperitoneal route", "value": "rapidly absorbed and distributed across the blood-brain barrier"}, {"measurement": "time over which symptoms gradually lessened until animals appeared unaffected", "setting": "Male Swiss-Webster mice; lower doses ip", "value": "1 to 2", "unit": "h"}, {"measurement": "LD100", "setting": "Male Swiss-Webster mice; single intraperitoneal dose, raw mortality data", "value": "450 to 500", "unit": "mg/kg"}, {"measurement": "LD50", "setting": "[4]", "value": 380, "unit": "mg/kg"}, {"measurement": "mortality", "setting": "[5]; 25 mg/kg i.p. simultaneously with LPS/D-galactosamine", "value": 30, "unit": "% mortality"}, {"measurement": "mortality", "setting": "[5]; 50 mg/kg i.p. simultaneously with LPS/D-galactosamine", "value": 5, "unit": "% mortality"}, {"measurement": "mortality", "setting": "[5]; 100 mg/kg i.p. simultaneously with LPS/D-galactosamine", "value": 0, "unit": "% mortality"}, {"measurement": "onset of lethal shock", "setting": "[5]; lowest dose (25 mg/kg)", "value": "delay of the onset of lethal shock"}]}]}
